Test results taken from patent US20020137929A1, “1 - (3-heterocyclylphenyl) isothiourea, -isourea, -guanidine and -amidine herbicidal agents” (Intellectual Property Department, BASF Aktiengesellschaft, priority 1998, published 2002).

Legend:
[1] = system: AMBEL (Ragweed, Common); assay: Preemergence herbicidal evaluation; format: in vivo, Ambrosia artemisifolia; details: rated 4-5 weeks after treatment
Procedure, shortened: (§1)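 Visual 0-9 rating vs control (stand, vigor, malformation, size, chlorosis, overall appearance), scored 4-5 wk after spraying. Seeded soil cups were treated preemergence with compound in aqueous acetone, ~0.0156-0.500 kg/ha equivalent.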

[2] = system: ZEAMX (Corn, Field); assay: Postemergence herbicidal evaluation; format: in vivo, Zea mays; details: for ZEAMX herbicidal rating: postemergence
Procedure, shortened: (§2)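 Compound is applied as a foliar spray to seedlings about two weeks old, formulated in equal parts acetone and water with 0.5% TWEEN 20 and delivered at 40 psi to give about 0.0156–0.500 kg per hectare. Injury is rated visually 0–9 after four to five weeks.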

[3] = system: GLXMAW (Soybean, Williams); assay: Postemergence herbicidal evaluation; format: in vivo, Glycine max, (L.) Merr. cv Williams; details: for GLXMAW herbicidal rating: postemergence
Procedure, shortened: as §2

[4] = system: CHEAL (Lambsquarters, Common); assay: Postemergence herbicidal evaluation; format: in vivo, Chenopodium album; details: for CHEAL herbicidal rating: postemergence
Procedure, shortened: as §2

[5] = system: CASOB (Sicklepod); assay: Preemergence herbicidal evaluation; format: in vivo, Cassia obtusifolia; details: rated 4-5 weeks after treatment
Procedure, shortened: as §1

[6] = system: ORYSAT (Rice, Tebonnet); assay: Postemergence herbicidal evaluation; format: in vivo, Oryza sativa, (L.) Tebonnet; details: for ORYSAT herbicidal rating: postemergence
Procedure, shortened: as §2

[7] = system: AMBEL (Ragweed, Common); assay: Postemergence herbicidal evaluation; format: in vivo, Ambrosia artemisifolia; details: for AMBEL herbicidal rating: postemergence
Procedure, shortened: as §2

[8] = system: CYPIR (Rice Flatsedge); assay: Postemergence weed control under flooded paddy conditions; format: in vivo, Cyperus iria; details: postemergence weeds, 3-4 weeks after treatment
Procedure, shortened: (§3)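 Herbicidal effect is judged by eye on a 0–9 scale versus control, 3–4 weeks after dosing. Dosing is into flood water kept 1.5–3 cm over the soil, at about 0.0313–0.500 kg/ha in aqueous/acetone 50/50 v/v, on 3–5 cm weeds and 1.5–2.5-leaf rice seedlings.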

[9] = system: CYPSE (Flatsedge); assay: Preemergence weed control under flooded paddy conditions; format: in vivo, Cyperus serotinus; details: rated 3-4 weeks after treatment
Procedure, shortened: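 First, seeds or propagules go into the top 0.5 cm of silt loam; next, water is held 1.5 to 3 cm over the soil; then compound (50/50 acetone/water) is pipetted into it at about 0.0313 to 0.500 kg/ha; finally plants are rated visually 0-9 after three to four weeks.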

[10] = system: CYPSE (Flatsedge); assay: Postemergence weed control under flooded paddy conditions; format: in vivo, Cyperus serotinus; details: postemergence weeds, 3-4 weeks after treatment
Procedure, shortened: as §3

[11] = system: GALAP (Galium); assay: Preemergence herbicidal evaluation; format: in vivo, Galium aparine; details: rated 4-5 weeks after treatment
Procedure, shortened: as §1

[12] = system: ABUTH (Velvetleaf); assay: Postemergence herbicidal evaluation; format: in vivo, Abutilon theophrasti; details: for ABUTH herbicidal rating: postemergence
Procedure, shortened: as §2

[13] = system: CHEAL (Lambsquarters, Common); assay: Preemergence herbicidal evaluation; format: in vivo, Chenopodium album; details: rated 4-5 weeks after treatment
Procedure, shortened: as §1

[14] = system: ECHCG (Barnyardgrass); assay: Postemergence herbicidal evaluation; format: in vivo, Echinochloa crus-galli; details: for ECHCG herbicidal rating: postemergence
Procedure, shortened: as §2

## CN1C(=O)CSC1=Nc1cc(N2C(=O)C3=C(CCCC3)C2=O)c(F)cc1Cl [Compound 1, N-{4-chloro-2-fluoro-5-[(3-methyl-4-oxo-2-thiazolidinylidene)amino]phenyl}-1-cyclohexene-1,2-dicarboximide]
[1]; rate 0.0313 kg/ha
  AMBEL preemergence herbicidal rating: 0.0
[1]; rate 0.0625 kg/ha
  AMBEL preemergence herbicidal rating: 2.0
[1]; rate 0.1250 kg/ha
  AMBEL preemergence herbicidal rating: 5.0
[1]; rate 0.2500 kg/ha
  AMBEL preemergence herbicidal rating: 5.0
[1]; rate 0.5000 kg/ha
  AMBEL preemergence herbicidal rating: 6.7
[2]; rate 0.0157 kg/ha
  ZEAMX herbicidal rating: 2.5
[2]; rate 0.0313 kg/ha
  ZEAMX herbicidal rating: 3.5
[2]; rate 0.0625 kg/ha
  ZEAMX herbicidal rating: 4.0
[2]; rate 0.1250 kg/ha
  ZEAMX herbicidal rating: 5.0
[2]; rate 0.2500 kg/ha
  ZEAMX herbicidal rating: 5.5
[2]; rate 0.5000 kg/ha
  ZEAMX herbicidal rating: 6.5
[3]; rate 0.0157 kg/ha
  GLXMAW herbicidal rating: 4.0
[3]; rate 0.0313 kg/ha
  GLXMAW herbicidal rating: 4.5
[3]; rate 0.0625 kg/ha
  GLXMAW herbicidal rating: 4.5
[3]; rate 0.1250 kg/ha
  GLXMAW herbicidal rating: 5.0
[3]; rate 0.2500 kg/ha
  GLXMAW herbicidal rating: 5.5
[3]; rate 0.5000 kg/ha
  GLXMAW herbicidal rating: 6.0
[4]; rate 0.0157 kg/ha
  CHEAL herbicidal rating: 6.0
[4]; rate 0.0313 kg/ha
  CHEAL herbicidal rating: 7.0
[4]; rate 0.0625 kg/ha
  CHEAL herbicidal rating: 7.0
[4]; rate 0.1250 kg/ha
  CHEAL herbicidal rating: 9.0
[4]; rate 0.2500 kg/ha
  CHEAL herbicidal rating: 9.0
[4]; rate 0.5000 kg/ha
  CHEAL herbicidal rating: 9.0
[5]; rate 0.0313 kg/ha
  CASOB preemergence herbicidal rating: 0.0
[5]; rate 0.0625 kg/ha
  CASOB preemergence herbicidal rating: 3.0
[5]; rate 0.1250 kg/ha
  CASOB preemergence herbicidal rating: 2.0
[5]; rate 0.2500 kg/ha
  CASOB preemergence herbicidal rating: 6.0
[5]; rate 0.5000 kg/ha
  CASOB preemergence herbicidal rating: 6.7
[6]; rate 0.0157 kg/ha
  ORYSAT herbicidal rating: 1.0
[6]; rate 0.0313 kg/ha
  ORYSAT herbicidal rating: 1.5
[6]; rate 0.0625 kg/ha
  ORYSAT herbicidal rating: 3.0
[6]; rate 0.1250 kg/ha
  ORYSAT herbicidal rating: 3.5
[6]; rate 0.2500 kg/ha
  ORYSAT herbicidal rating: 5.5
[6]; rate 0.5000 kg/ha
  ORYSAT herbicidal rating: 5.5
[7]; rate 0.0157 kg/ha
  AMBEL herbicidal rating: 2.0
[7]; rate 0.0313 kg/ha
  AMBEL herbicidal rating: 3.0
[7]; rate 0.0625 kg/ha
  AMBEL herbicidal rating: 3.0
[7]; rate 0.1250 kg/ha
  AMBEL herbicidal rating: 5.0
[7]; rate 0.2500 kg/ha
  AMBEL herbicidal rating: 7.0
[7]; rate 0.5000 kg/ha
  AMBEL herbicidal rating: 8.0
[8]; rate 0.0313 kg/ha
  Herbicidal rating CYPIR: 1.0
[8]; rate 0.0625 kg/ha
  Herbicidal rating CYPIR: 3.5
[8]; rate 0.1250 kg/ha
  Herbicidal rating CYPIR: 5.5
[8]; rate 0.2500 kg/ha
  Herbicidal rating CYPIR: 6.5
[8]; rate 0.5000 kg/ha
  Herbicidal rating CYPIR: 8.5
[9]; 0.0313 kg/ha
  Herbicidal rating CYPSE: 0.0
[9]; 0.0625 kg/ha
  Herbicidal rating CYPSE: 0.0
[9]; 0.1250 kg/ha
  Herbicidal rating CYPSE: 0.0
[9]; 0.2500 kg/ha
  Herbicidal rating CYPSE: 2.0
[9]; 0.5000 kg/ha
  Herbicidal rating CYPSE: 8.0
[10]; rate 0.0313 kg/ha
  Herbicidal rating CYPSE: 0.0
[10]; rate 0.0625 kg/ha
  Herbicidal rating CYPSE: 0.0
[10]; rate 0.1250 kg/ha
  Herbicidal rating CYPSE: 0.0
[10]; rate 0.2500 kg/ha
  Herbicidal rating CYPSE: 1.0
[10]; rate 0.5000 kg/ha
  Herbicidal rating CYPSE: 4.0
[11]; rate 0.0313 kg/ha
  GALAP preemergence herbicidal rating: 9.0
[11]; rate 0.0625 kg/ha
  GALAP preemergence herbicidal rating: 7.0
[11]; rate 0.1250 kg/ha
  GALAP preemergence herbicidal rating: 9.0
[11]; rate 0.2500 kg/ha
  GALAP preemergence herbicidal rating: 9.0
[11]; rate 0.5000 kg/ha
  GALAP preemergence herbicidal rating: 8.0
[12]; rate 0.0157 kg/ha
  ABUTH herbicidal rating: 5.0
[12]; rate 0.0313 kg/ha
  ABUTH herbicidal rating: 8.0
[12]; rate 0.0625 kg/ha
  ABUTH herbicidal rating: 8.0
[12]; rate 0.1250 kg/ha
  ABUTH herbicidal rating: 9.0
[12]; rate 0.2500 kg/ha
  ABUTH herbicidal rating: 9.0
[12]; rate 0.5000 kg/ha
  ABUTH herbicidal rating: 9.0
[13]; rate 0.0313 kg/ha
  CHEAL preemergence herbicidal rating: 9.0
[13]; rate 0.0625 kg/ha
  CHEAL preemergence herbicidal rating: 9.0
[13]; rate 0.1250 kg/ha
  CHEAL preemergence herbicidal rating: 9.0
[13]; rate 0.2500 kg/ha
  CHEAL preemergence herbicidal rating: 9.0
[13]; rate 0.5000 kg/ha
  CHEAL preemergence herbicidal rating: 9.0
[14]; rate 0.0157 kg/ha
  ECHCG herbicidal rating: 0.0
[14]; rate 0.0313 kg/ha
  ECHCG herbicidal rating: 0.0
[14]; rate 0.0625 kg/ha
  ECHCG herbicidal rating: 2.0
[14]; rate 0.1250 kg/ha
  ECHCG herbicidal rating: 2.0
[14]; rate 0.2500 kg/ha
  ECHCG herbicidal rating: 5.0
[14]; rate 0.5000 kg/ha
  ECHCG herbicidal rating: 7.0

## CCOC(=O)CN1C(=O)C(Cc2ccccc2OC(C)C(=O)OC)SC1=Nc1cc(-n2c(=O)cc(C(F)(F)F)n(C)c2=O)c(F)cc1Cl (centres unmarked) [Compound 50, 2-{{2-Chloro-5-[3,6-dihydro-3-methyl-2,6-dioxo-4-(trifluoromethyl)-1(2H)-pyrimidinyl]-4-fluoro-phenyl}imino}-5-(o-hydroxybenzyl)-4-oxo-3-thiazolidineacetic acid, ethyl ester, ester with methyl lactate]
[1]; rate 0.0625 kg/ha
  Preemergence herbicidal rating AMBEL: 0.0
[1]; rate 0.1250 kg/ha
  Preemergence herbicidal rating AMBEL: 0.0
[1]; rate 0.2500 kg/ha
  Preemergence herbicidal rating AMBEL: 0.0
[2]; Rate 0.0156 kg/ha
  Postemergence herbicidal rating ZEAMX: 5.0
[2]; Rate 0.0313 kg/ha
  Postemergence herbicidal rating ZEAMX: 5.0
[2]; Rate 0.0625 kg/ha
  Postemergence herbicidal rating ZEAMX: 5.5
[3]; Rate 0.0156 kg/ha
  Postemergence herbicidal rating GLXMAW: 5.5
[3]; Rate 0.0313 kg/ha
  Postemergence herbicidal rating GLXMAW: 5.5
[3]; Rate 0.0625 kg/ha
  Postemergence herbicidal rating GLXMAW: 5.5
[4]; Rate 0.0156 kg/ha
  Postemergence herbicidal rating CHEAL: 0.0
[4]; Rate 0.0313 kg/ha
  Postemergence herbicidal rating CHEAL: 3.0
[4]; Rate 0.0625 kg/ha
  Postemergence herbicidal rating CHEAL: 5.0
[5]; rate 0.0625 kg/ha
  Preemergence herbicidal rating CASOB: 0.0
[5]; rate 0.1250 kg/ha
  Preemergence herbicidal rating CASOB: 9.0
[5]; rate 0.2500 kg/ha
  Preemergence herbicidal rating CASOB: 9.0
[6]; Rate 0.0156 kg/ha
  Postemergence herbicidal rating ORYSAT: 1.0
[6]; Rate 0.0313 kg/ha
  Postemergence herbicidal rating ORYSAT: 1.0
[6]; Rate 0.0625 kg/ha
  Postemergence herbicidal rating ORYSAT: 2.0
[7]; Rate 0.0156 kg/ha
  Postemergence herbicidal rating AMBEL: 9.0
[7]; Rate 0.0313 kg/ha
  Postemergence herbicidal rating AMBEL: 9.0
[7]; Rate 0.0625 kg/ha
  Postemergence herbicidal rating AMBEL: 9.0
[8]; rate 0.0313 kg/ha
  Herbicidal rating CYPIR: 0.0
[8]; rate 0.0625 kg/ha
  Herbicidal rating CYPIR: 0.0
[8]; rate 0.1250 kg/ha
  Herbicidal rating CYPIR: 0.0
[8]; rate 0.2500 kg/ha
  Herbicidal rating CYPIR: 0.0
[9]; 0.0313 kg/ha
  Herbicidal rating CYPSE: 0.0
[9]; 0.0625 kg/ha
  Herbicidal rating CYPSE: 0.0
[9]; 0.1250 kg/ha
  Herbicidal rating CYPSE: 0.0
[9]; 0.2500 kg/ha
  Herbicidal rating CYPSE: 0.0
[10]; rate 0.0313 kg/ha
  Herbicidal rating CYPSE: 0.0
[10]; rate 0.0625 kg/ha
  Herbicidal rating CYPSE: 0.0
[10]; rate 0.1250 kg/ha
  Herbicidal rating CYPSE: 0.0
[10]; rate 0.2500 kg/ha
  Herbicidal rating CYPSE: 0.0
[11]; rate 0.0625 kg/ha
  Preemergence herbicidal rating GALAP: 0.0
[11]; rate 0.1250 kg/ha
  Preemergence herbicidal rating GALAP: 0.0
[11]; rate 0.2500 kg/ha
  Preemergence herbicidal rating GALAP: 0.0
[12]; Rate 0.0156 kg/ha
  Postemergence herbicidal rating ABUTH: 6.0
[12]; Rate 0.0313 kg/ha
  Postemergence herbicidal rating ABUTH: 9.0
[12]; Rate 0.0625 kg/ha
  Postemergence herbicidal rating ABUTH: 9.0
[13]; rate 0.0625 kg/ha
  Preemergence herbicidal rating CHEAL: 0.0
[13]; rate 0.1250 kg/ha
  Preemergence herbicidal rating CHEAL: 9.0
[13]; rate 0.2500 kg/ha
  Preemergence herbicidal rating CHEAL: 9.0
[14]; Rate 0.0156 kg/ha
  Postemergence herbicidal rating ECHCG: 0.0
[14]; Rate 0.0313 kg/ha
  Postemergence herbicidal rating ECHCG: 0.0
[14]; Rate 0.0625 kg/ha
  Postemergence herbicidal rating ECHCG: 2.0
